# Measurements reported in ChEMBL document CHEMBL4350957, “Use of the 4-Hydroxytriazole Moiety as a Bioisosteric Tool in the Development of Ionotropic Glutamate Receptor Ligands” (J Med Chem, 2019).
# Active and inactive are the calls of the source. No cut-off for these calls is given here.
# Columns and labels:
# Glutamate receptor 2 [1] = target: Glutamate receptor 2 (Rattus norvegicus, UniProt P19491); experiment: biochemical
# Glutamate receptor 3 [2] = target: Glutamate receptor 3 (Rattus norvegicus, UniProt P19492); experiment: biochemical
# Glutamate receptor 3 (Rattus norvegicus, UniProt P19492), sequence (P19492 whole entry): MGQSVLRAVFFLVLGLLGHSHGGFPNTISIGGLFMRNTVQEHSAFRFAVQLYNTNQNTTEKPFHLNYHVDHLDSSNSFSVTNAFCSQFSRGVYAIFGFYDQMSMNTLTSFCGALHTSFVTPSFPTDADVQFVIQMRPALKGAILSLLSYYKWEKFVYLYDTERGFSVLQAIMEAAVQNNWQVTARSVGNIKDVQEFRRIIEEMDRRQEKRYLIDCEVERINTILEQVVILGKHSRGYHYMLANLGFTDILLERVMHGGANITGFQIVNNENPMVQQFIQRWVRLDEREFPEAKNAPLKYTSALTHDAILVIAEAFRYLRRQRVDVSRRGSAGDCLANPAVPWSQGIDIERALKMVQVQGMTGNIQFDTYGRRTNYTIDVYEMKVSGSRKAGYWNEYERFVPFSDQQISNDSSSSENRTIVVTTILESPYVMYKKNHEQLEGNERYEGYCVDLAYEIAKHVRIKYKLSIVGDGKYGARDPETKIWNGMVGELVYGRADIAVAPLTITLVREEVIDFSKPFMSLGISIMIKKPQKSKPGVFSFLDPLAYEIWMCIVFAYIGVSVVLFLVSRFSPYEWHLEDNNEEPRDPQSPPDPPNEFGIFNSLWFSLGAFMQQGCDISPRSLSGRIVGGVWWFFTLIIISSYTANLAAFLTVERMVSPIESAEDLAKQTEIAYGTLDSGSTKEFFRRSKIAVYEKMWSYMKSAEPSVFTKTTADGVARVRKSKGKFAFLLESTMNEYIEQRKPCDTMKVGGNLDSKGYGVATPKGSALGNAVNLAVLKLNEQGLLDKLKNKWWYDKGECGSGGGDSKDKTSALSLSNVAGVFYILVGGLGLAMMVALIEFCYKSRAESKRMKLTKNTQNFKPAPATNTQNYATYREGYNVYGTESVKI
# Glutamate receptor 4 [3] = target: Glutamate receptor 4 (Rattus norvegicus, UniProt P19493); experiment: biochemical
# Glutamate receptor 4 (Rattus norvegicus, UniProt P19493), sequence (P19493 whole entry): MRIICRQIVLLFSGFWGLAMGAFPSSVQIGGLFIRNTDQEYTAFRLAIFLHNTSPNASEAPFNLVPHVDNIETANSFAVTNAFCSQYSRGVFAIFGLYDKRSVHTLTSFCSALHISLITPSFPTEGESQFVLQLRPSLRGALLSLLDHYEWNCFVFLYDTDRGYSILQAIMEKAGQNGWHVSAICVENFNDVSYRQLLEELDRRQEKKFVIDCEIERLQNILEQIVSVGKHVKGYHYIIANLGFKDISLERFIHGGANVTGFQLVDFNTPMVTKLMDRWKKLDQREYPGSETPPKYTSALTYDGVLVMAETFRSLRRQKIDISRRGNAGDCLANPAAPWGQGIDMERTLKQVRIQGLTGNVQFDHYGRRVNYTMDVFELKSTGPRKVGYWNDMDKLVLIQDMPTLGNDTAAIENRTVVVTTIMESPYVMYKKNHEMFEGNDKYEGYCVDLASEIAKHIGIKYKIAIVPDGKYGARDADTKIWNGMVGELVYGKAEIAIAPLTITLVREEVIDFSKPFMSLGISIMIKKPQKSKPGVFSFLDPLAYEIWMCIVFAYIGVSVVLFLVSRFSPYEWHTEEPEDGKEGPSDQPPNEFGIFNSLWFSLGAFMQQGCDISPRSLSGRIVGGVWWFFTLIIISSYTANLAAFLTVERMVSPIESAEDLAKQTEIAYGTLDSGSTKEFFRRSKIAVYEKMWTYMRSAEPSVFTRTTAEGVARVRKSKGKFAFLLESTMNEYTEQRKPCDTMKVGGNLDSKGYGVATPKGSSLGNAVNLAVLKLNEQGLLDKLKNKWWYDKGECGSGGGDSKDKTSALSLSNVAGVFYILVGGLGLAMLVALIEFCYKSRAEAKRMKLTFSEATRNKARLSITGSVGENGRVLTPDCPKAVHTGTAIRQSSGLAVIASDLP
# Glutamate receptor 1 [4] = target: T1, Glutamate receptor 1 (Homo sapiens, UniProt P42261); experiment: Agonist activity at GluA1 receptor (unknown origin) expressed in HEK293 cells assessed induction of S-glutamate-induced calcium flux at 300 uM measured after 90 secs in presence of cyclothiazide by Fluo4-AM dye-based fluorescence assay relative to S-glutamate; format: cell-based
# T1 sequence (P42261 whole entry): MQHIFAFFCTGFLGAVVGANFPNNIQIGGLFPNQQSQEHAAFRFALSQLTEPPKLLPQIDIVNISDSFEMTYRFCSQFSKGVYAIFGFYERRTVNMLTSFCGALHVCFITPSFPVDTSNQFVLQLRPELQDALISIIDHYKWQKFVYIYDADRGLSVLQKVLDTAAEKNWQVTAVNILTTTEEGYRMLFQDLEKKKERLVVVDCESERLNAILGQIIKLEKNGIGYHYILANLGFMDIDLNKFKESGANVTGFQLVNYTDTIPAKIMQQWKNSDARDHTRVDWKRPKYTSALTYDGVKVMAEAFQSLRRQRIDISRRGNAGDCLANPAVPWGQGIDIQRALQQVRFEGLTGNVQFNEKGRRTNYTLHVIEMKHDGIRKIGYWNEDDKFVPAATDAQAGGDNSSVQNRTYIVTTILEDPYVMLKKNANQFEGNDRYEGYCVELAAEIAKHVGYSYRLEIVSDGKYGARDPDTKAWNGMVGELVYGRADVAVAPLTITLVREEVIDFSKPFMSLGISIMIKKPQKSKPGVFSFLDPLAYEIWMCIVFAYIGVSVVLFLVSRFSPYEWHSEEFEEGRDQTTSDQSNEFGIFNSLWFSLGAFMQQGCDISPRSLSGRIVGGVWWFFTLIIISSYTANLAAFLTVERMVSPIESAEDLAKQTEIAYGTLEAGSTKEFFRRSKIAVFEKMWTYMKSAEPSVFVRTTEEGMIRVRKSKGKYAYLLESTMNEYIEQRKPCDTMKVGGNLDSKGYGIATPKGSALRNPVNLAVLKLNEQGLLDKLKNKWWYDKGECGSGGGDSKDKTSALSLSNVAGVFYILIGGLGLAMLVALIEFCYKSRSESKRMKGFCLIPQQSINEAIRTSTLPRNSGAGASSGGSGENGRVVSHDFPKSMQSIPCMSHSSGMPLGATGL
# Glutamate receptor 3 [5] = target: T2, Glutamate receptor 3 (Homo sapiens, UniProt P42263); experiment: Agonist activity at GluA3 receptor (unknown origin) expressed in HEK293 cells assessed induction of S-glutamate-induced calcium flux at 300 uM measured after 90 secs in presence of cyclothiazide by Fluo4-AM dye-based fluorescence assay relative to S-glutamate; format: cell-based
# T2 sequence (P42263 whole entry): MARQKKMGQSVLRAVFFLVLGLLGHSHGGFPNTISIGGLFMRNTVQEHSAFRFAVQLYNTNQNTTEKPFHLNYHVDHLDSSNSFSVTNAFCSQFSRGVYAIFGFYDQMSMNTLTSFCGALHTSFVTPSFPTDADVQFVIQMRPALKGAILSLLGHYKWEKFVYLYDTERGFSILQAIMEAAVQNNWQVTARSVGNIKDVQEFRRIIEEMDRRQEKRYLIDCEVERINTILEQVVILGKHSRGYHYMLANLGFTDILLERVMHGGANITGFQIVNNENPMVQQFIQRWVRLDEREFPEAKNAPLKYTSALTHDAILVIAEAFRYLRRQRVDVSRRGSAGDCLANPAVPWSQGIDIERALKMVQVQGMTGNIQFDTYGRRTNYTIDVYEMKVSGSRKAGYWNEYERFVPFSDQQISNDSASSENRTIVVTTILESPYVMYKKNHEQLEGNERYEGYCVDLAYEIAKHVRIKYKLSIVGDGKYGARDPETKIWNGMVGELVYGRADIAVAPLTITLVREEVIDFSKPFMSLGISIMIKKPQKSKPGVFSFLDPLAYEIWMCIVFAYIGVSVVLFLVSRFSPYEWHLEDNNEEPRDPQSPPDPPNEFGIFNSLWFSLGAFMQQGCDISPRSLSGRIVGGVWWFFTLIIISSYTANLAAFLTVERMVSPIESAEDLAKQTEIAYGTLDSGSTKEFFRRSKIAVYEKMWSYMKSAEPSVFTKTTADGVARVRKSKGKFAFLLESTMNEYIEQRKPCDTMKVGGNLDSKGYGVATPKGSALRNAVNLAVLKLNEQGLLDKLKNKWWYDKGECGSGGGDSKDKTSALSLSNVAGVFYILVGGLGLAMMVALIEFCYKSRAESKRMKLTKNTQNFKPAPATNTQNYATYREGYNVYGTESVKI
# Glutamate receptor 4 [6] = target: T3, Glutamate receptor 4 (Homo sapiens, UniProt P48058)
# T3 sequence (P48058 whole entry): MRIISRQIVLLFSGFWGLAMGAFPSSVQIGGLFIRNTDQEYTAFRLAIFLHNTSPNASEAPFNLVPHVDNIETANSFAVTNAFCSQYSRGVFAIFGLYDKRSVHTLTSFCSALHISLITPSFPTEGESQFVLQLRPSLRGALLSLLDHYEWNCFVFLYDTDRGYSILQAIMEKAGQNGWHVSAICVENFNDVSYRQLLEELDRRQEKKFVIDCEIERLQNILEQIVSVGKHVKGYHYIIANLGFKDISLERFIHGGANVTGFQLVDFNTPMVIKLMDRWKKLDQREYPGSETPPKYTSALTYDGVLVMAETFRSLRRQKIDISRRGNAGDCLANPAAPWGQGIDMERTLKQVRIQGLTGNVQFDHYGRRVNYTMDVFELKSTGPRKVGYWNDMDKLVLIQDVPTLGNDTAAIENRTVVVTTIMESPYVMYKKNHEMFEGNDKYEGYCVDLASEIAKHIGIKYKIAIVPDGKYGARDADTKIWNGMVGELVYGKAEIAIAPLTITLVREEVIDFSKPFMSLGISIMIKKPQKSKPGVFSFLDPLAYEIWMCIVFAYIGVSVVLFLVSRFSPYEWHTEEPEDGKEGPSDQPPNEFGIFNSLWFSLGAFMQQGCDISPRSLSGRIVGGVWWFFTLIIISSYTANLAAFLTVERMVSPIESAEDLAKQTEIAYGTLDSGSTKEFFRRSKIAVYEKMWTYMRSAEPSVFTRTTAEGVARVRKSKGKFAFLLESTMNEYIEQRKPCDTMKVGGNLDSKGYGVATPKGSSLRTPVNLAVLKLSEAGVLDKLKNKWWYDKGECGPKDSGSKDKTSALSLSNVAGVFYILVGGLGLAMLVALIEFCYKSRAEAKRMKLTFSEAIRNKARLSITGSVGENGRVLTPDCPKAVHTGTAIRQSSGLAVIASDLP
# [7] = target: T4, Glutamate NMDA receptor; Grin1/Grin2a (Rattus norvegicus) (UniProt P35439+Q00959); experiment: Agonist activity at recombinant rat GluN1a/GluN2A expressed in Xenopus laevis oocytes at 100 uM at -40 mV holding potential by two-electrode voltage clamp electrophysiology method; format: cell-based
# [8] = target: T5, Glutamate NMDA receptor; Grin1/Grin2b (Rattus norvegicus) (UniProt P35439+Q00960); experiment: Agonist activity at recombinant rat GluN1a/GluN2B expressed in Xenopus laevis oocytes at 100 uM at -40 mV holding potential by two-electrode voltage clamp electrophysiology method; format: cell-based
# [9] = target: T6, Glutamate NMDA receptor; Grin1/Grin2c (Rattus norvegicus) (UniProt P35439+Q00961); experiment: Agonist activity at recombinant rat GluN1a/GluN2C expressed in Xenopus laevis oocytes at 100 uM at -40 mV holding potential by two-electrode voltage clamp electrophysiology method; format: cell-based
# [10] = target: T7, Ionotropic glutamate receptor NMDA 1/2D (Rattus norvegicus) (UniProt P35439+Q62645); experiment: Agonist activity at recombinant rat GluN1a/GluN2D expressed in Xenopus laevis oocytes at 100 uM at -40 mV holding potential by two-electrode voltage clamp electrophysiology method; format: cell-based
# [11] = target: T4, Glutamate NMDA receptor; Grin1/Grin2a (Rattus norvegicus); experiment: Agonist activity at recombinant rat GluN1a/GluN2A expressed in Xenopus laevis oocytes at 300 uM at -40 mV holding potential in presence of glutamate by two-electrode voltage clamp electrophysiology method relative to control; format: cell-based
# [12] = target: T5, Glutamate NMDA receptor; Grin1/Grin2b (Rattus norvegicus); experiment: Agonist activity at recombinant rat GluN1a/GluN2B expressed in Xenopus laevis oocytes at 300 uM at -40 mV holding potential in presence of glutamate by two-electrode voltage clamp electrophysiology method relative to control; format: cell-based
# [13] = target: T6, Glutamate NMDA receptor; Grin1/Grin2c (Rattus norvegicus); experiment: Agonist activity at recombinant rat GluN1a/GluN2C expressed in Xenopus laevis oocytes at -40 mV holding potential in presence of glutamate by two-electrode voltage clamp electrophysiology method relative to control; format: cell-based
# [14] = target: T7, Ionotropic glutamate receptor NMDA 1/2D (Rattus norvegicus); experiment: Agonist activity at recombinant rat GluN1a/GluN2D expressed in Xenopus laevis oocytes at -40 mV holding potential in presence of glutamate by two-electrode voltage clamp electrophysiology method relative to control; format: cell-based
# [15] = target: T4, Glutamate NMDA receptor; Grin1/Grin2a (Rattus norvegicus); experiment: Agonist activity at recombinant rat GluN1a/GluN2A expressed in Xenopus laevis oocytes at 300 uM at -40 mV holding potential in presence of glycine by two-electrode voltage clamp electrophysiology method relative to glycine; format: cell-based
# [16] = target: T7, Ionotropic glutamate receptor NMDA 1/2D (Rattus norvegicus); experiment: Agonist activity at recombinant rat GluN1a/GluN2D expressed in Xenopus laevis oocytes at -40 mV holding potential in presence of glycine by two-electrode voltage clamp electrophysiology method relative to glycine; format: cell-based
# [17] = target: Glutamate receptor ionotropic, AMPA (Rattus norvegicus, UniProt P19490+P19491+P19492+P19493)
# [18] = target: T8, Ionotropic glutamate receptor NMDA 1/2D (Rattus norvegicus, UniProt P35439+Q62645)
# [19] = target: T8, Ionotropic glutamate receptor NMDA 1/2D; remark: listed apart in the source
# Glutamate receptor 1 [20] = target: T1, Glutamate receptor 1
# Glutamate receptor 2 [21] = target: Glutamate receptor 2 (Homo sapiens, UniProt P42262)
# Glutamate receptor 3 [22] = target: T2, Glutamate receptor 3
# Glutamate receptor 1 [23] = target: Glutamate receptor 1 (Rattus norvegicus, UniProt P19490); experiment: biochemical
# Glutamate receptor 4 [24] = target: T3, Glutamate receptor 4; experiment: Agonist activity at GluA4 receptor (unknown origin) expressed in HEK293 cells assessed induction of S-glutamate-induced calcium flux at 1000 uM measured after 90 secs in presence of cyclothiazide by Fluo4-AM dye-based fluorescence assay relative to S-glutamate; format: cell-based
Structure (SMILES),Ki (Glutamate receptor 2 [1]),Ki (Glutamate receptor 3 [2]),Ki (Glutamate receptor 4 [3]),EC50 (Glutamate receptor 4 [6]),IC50 [17],Ki (Glutamate NMDA receptor),other results
Cn1nnc(-c2onc(O)c2CC(N)C(=O)O)n1 (centres undefined),0.0039 µM,0.0022 µM,0.0027 µM,,,,
Cn1nnc(O)c1CC(N)C(=O)O (racemic),1.87 µM,,,56.2 µM,,,%max (Glutamate receptor 1 [4]): > 5%; %max (Glutamate receptor 3 [5]): > 5%
Cn1nc(O)c(C(N)C(=O)O)n1 (racemic),,,,,> 100 µM,,Activity [7]: inactive; Activity [8]: Active; Activity [9]: Active; Activity [10]: Active; Imax [11]: 38%; Imax [12]: 52%; Imax [13]: 107%; Imax [14]: 98%; Imax [15]: inactive; Imax [16]: 58%; EC50 [18]: 35 µM; EC50 [19]: 58 µM
CCn1nc(O)c(CC(N)C(=O)O)n1 (racemic),> 100 µM,100 µM,> 100 µM,> 1000 µM,> 100 µM,> 100 µM,EC50 (Glutamate receptor 1 [20]): > 1000 µM; EC50 (Glutamate receptor 2 [21]): > 1000 µM; EC50 (Glutamate receptor 3 [22]): > 1000 µM; Ki (Glutamate receptor 1 [23]): > 100 µM
CCCn1nc(O)c(CC(N)C(=O)O)n1 (racemic),> 100 µM,> 100 µM,> 100 µM,,> 100 µM,> 100 µM,%max (Glutamate receptor 4 [24]): > 5%; EC50 (Glutamate receptor 1 [20]): > 1000 µM; Ki (Glutamate receptor 1 [23]): > 100 µM
CCCn1nnc(O)c1CC(N)C(=O)O (racemic),3.25 µM,,100 µM,51 µM,,> 100 µM,%max (Glutamate receptor 3 [5]): > 5%
CN[C@H](CC(=O)O)C(=O)O [N-METHYL-D-ASPARTIC ACID (NMDA)],,,,,> 100 µM,,
